# Bridges are numbered along the chain shown (N, C = ends). Roman numbers before positions name the chains, in order. Where no end group is shown, it is not given here. [ ]: non-standard residue; d: D form. The star is where a group is joined. mini PEG = minipeg spacer; Nle = CCCC[C@H](N)C(=O)O; Octanoyl = CCCCCCCC(=O)*; Dap = NC[C@H](N)C(=O)O
# B1: CNP D10: C-type Natriuretic peptide conjugated with 10 aspartate acids, SEQ ID NO: 7/16, FIG. 30 (peptide)
# chain 1: DDDDDDDDDDGLSKGCFGLKLDRIGSMSGLGC
# chain 2: B1 chain 1
# modifications: disulfide I:16-I:32, II:16-II:32; not fully specified
# B2: VIP D10: Vasoactive intestinal peptide conjugated with D10, SEQ ID NO: 8/17, FIG. 31 (peptide)
# chain 1: HSDAVFTDNYTRLRKQMAVKKYLNSILNDDDDDDDDDD
# chain 2: B2 chain 1
# modifications: 10 aspartates
# How the values were obtained:
# [1] = test system: fracture callus of fractured femur; assay: Femur fracture model, microCT of the fracture callus (BV/TV, BV, TbTh, TbSp); type: in vivo, Swiss Webster mice
# From the text: All in vivo data included herein are from Swiss Webster mice. […] 1×concentration represents 1 nmol/day, 10× represents 10 nmol/day, 100×represents 100 nmol/day and most studies have an n of 5.
# The term “BV/TV” means the bone volume divided by total volume of the 100 thickest micro CT slices of the fracture callus.
# The term “TbTh” means the trabecular thickness of the 100 thickest micro CT slices of the fracture callus.
# The term “[…]” means the overall bone volume of the 100 thickest micro CT slices of the fracture callus.
# The term “TbSp” means the spacing between the trabecula in the 100 thickest micro CT slices of the fracture callus.
# The targeted conjugates were synthesized using standard Fmoc solid-phase peptide synthesis, as described above. To ensure the conjugates' activity, mouse pre osteo-blast (MCTC3-1) cells were treated with the targeted and untargeted compounds for three days at concentrations from 1 pM to 100 nM. After three days of treatment, the cells were harvested, and the ribonucleic acid (RNA) was purified from the cells. Expression levels of ALP, RUNx2, OSX, osteo-pontin (OPN), collagen 1A (Col-1A), OPG, RANKL, scle-rostin gene (SOST), and OC were quantified via quantitative reverse transcription polymerase chain reaction (RT-qPCR). Once the biological activity of the conjugates was confirmed, they were tested in vivo in a fracture model. Aseptic surgical techniques were used to place a 23-gage needle as in intramedullary nail in the femur of anesthetized, 12-week-old Swiss Webster mice for internal fixation before fracture. Femur fractures were induced using a drop weight fracture device from RISystem. The mice received buprenorphine for three days post fracture. […] Fracture healing was assessed using microCT (Scanco Medical Ag). Morphometric parameters were quantified in the 100 widest slices of the fracture callus. Trabecular thickness (TbTh), trabecular spacing (TbSp), total volume (TV), and volume of calcified callus (BV) were calculated. Fractured femurs were tested for strength in a four-point bend to failure using an Electro Force TestBench (TA Instruments). Lower supports were 10 mm apart on the anterior face of the femur in contact with the proximal and distal diaphysis. Upper supports were 4 mm apart and spanned the entire fracture callus on the diaphysis. Force was applied from the posterior face of the femur with a displacement rate of 0.3 mm/sec. Peak load, yield load, stiffness, displacement post yield, work to fracture, and deformation data were generated. Statistical analysis was performed using a two-way analysis of variance (ANOVA) and a Tukey post-hoc analysis with significance reported at the 95% confidence level. All animal experiments were performed in accordance with protocols approved by Purdue University's Institutional Animal Care and Use Committee (IACUC).
# healed fractured femur = assay: Femur fracture model, postmortem four-point bend of the healed femur; type: in vivo, Swiss Webster mice
# From the text: All in vivo data included herein are from Swiss Webster mice. All mice received an osteotomy on their right femur and received subcutaneous drug administration daily for either 2, 3 or 4 weeks, as indicated, for each compound. 1×concentration represents 1 nmol/day, 10× represents 10 nmol/day, 100×represents 100 nmol/day and most studies have an n of 5.
# The term “Peak Load” means a postmortem 4 point bend of the healed femur. Peak load represents the maximum force the healed femur withstood before it refractured.
# The targeted conjugates were synthesized using standard Fmoc solid-phase peptide synthesis, as described above. To ensure the conjugates' activity, mouse pre osteo-blast (MCTC3-1) cells were treated with the targeted and untargeted compounds for three days at concentrations from 1 pM to 100 nM. After three days of treatment, the cells were harvested, and the ribonucleic acid (RNA) was purified from the cells. Expression levels of ALP, RUNx2, OSX, osteo-pontin (OPN), collagen 1A (Col-1A), OPG, RANKL, scle-rostin gene (SOST), and OC were quantified via quantitative reverse transcription polymerase chain reaction (RT-qPCR). Once the biological activity of the conjugates was confirmed, they were tested in vivo in a fracture model. Aseptic surgical techniques were used to place a 23-gage needle as in intramedullary nail in the femur of anesthetized, 12-week-old Swiss Webster mice for internal fixation before fracture. Femur fractures were induced using a drop weight fracture device from RISystem. The mice received buprenorphine for three days post fracture. The mice were dosed subcutaneously each day for two weeks, three weeks, 4 weeks, or 17 days. Fracture healing was assessed using microCT (Scanco Medical Ag). Morphometric parameters were quantified in the 100 widest slices of the fracture callus. Trabecular thickness (TbTh), trabecular spacing (TbSp), total volume (TV), and volume of calcified callus (BV) were calculated. Fractured femurs were tested for strength in a four-point bend to failure using an Electro Force TestBench (TA Instruments). Lower supports were 10 mm apart on the anterior face of the femur in contact with the proximal and distal diaphysis. Upper supports were 4 mm apart and spanned the entire fracture callus on the diaphysis. Force was applied from the posterior face of the femur with a displacement rate of 0.3 mm/sec. Peak load, yield load, stiffness, displacement post yield, work to fracture, and deformation data were generated. Statistical analysis was performed using a two-way analysis of variance (ANOVA) and a Tukey post-hoc analysis with significance reported at the 95% confidence level. All animal experiments were performed in accordance with protocols approved by Purdue University's Institutional Animal Care and Use Committee (IACUC).
# [2] = 3 weeks, 0.1, 1 and 10 nmol daily subcutaneous
# [3] = 3 weeks, 0.1, 1 and 10 nmol daily subcutaneous, n=5
# [4] = 2 weeks, various concentrations 1-100 nmol/day, subcutaneous daily
# [5] = 3 weeks, 1, 10 and 100 nmol daily subcutaneous, n=5
# [6] = 4 weeks, various concentrations (1, 10 and in part 100 nmol/day), subcutaneous daily
# [7] = 1 μmol/kg, subcutaneous, every-other-day, CFW Swiss Webster mice
molecule,measurement,setting,value
"B2A_mp4_(D)E10: two B2A branches (SEQ ID NO: 44) conjugated to e10 (D-glutamic acids), SEQ ID NO: 19, FIG. 35 (AIS[Nle]LYLDENEKVVLK; not fully specified; also: C-terminal Lys carries branching Lys-Ahx3-D-Glu10 moiety)",BV/TV (bone density),[1]; [2],raises bone density
same,"BV (bone volume, bone mineralization)",[1]; [3],raises bone mineralization
same,Max load (bone strength),healed fractured femur; [3],raises bone strength
same,Work to fracture (bone strength),healed fractured femur; [3],raises bone strength
"BFP-D10: bone forming peptide conjugated with 10 aspartate acids, SEQ ID NO: 1, DDDDDDDDDDGQGFSYPYKA VFSTQ (DDDDDDDDDDGQGFSYPYKAVFSTQ; 10 aspartates)",BV/TV,[1]; [4],dose dependent manner
same,TbSp,[1]; [4],dose dependent manner
same,"Peak load of fractured femurs (ranking, compared to PBS)","healed fractured femur; after 2 weeks, 100 nmol/day (100×)",obtained the maximum peak load
"CBM D10: collagen binding motif of osteopontin conjugated with 10 aspartate acids, SEQ ID NO: 9, FIG. 33",BV/TV (bone density),[1]; [2],dose dependent manner
"F2A_mp4_(D)E10: two copies of FGF2 receptor targeting sequence YRSRKYSSWYVALKR branching from a lysine, 4 mini pegs, 10 D glutamic acids",BV/TV (bone density),[1]; [2],raises bone density
same,"BV (bone volume, bone mineralization)",[1]; [3],raises bone mineralization
same,Max load (bone strength),healed fractured femur; [3],raises bone strength
same,Work to fracture (bone strength),healed fractured femur; [3],raises bone strength
"F119_mp4 (D)E10: heparin binding fragment 119-135 of FGF2 with mp4 linker and 10 glutamic acids, SEQ ID NO: 20, FIG. 84 (KRTGQYKLGSKTGPGQK; mp4 linker, 10 D-glutamic acids; SITE 17 C-term Lysine modified with 4 mini PEG linker-d(Glutamic acid)10 moiety)","BV (bone volume, bone mineralization)",[1]; [5],raises bone mineralization
same,BV/TV (bone density),[1]; [5],raises bone density
same,Max load (bone strength),healed fractured femur; [5],raises bone strength
same,Work to fracture (bone strength),healed fractured femur; [5],raises bone strength
"Ghrelin-D 10: Ghrelin D10 with Ser-3 replaced with diaminopropionic acid modified with an octanoyl group sidechain, SEQ ID NO: 5 (GS[Dap](Octanoyl)FLSPEHQKAQQRKESKKPPAKLQPRDDDDDDDDDD)",BV/TV,[1]; [6],dose dependent manner
"JNK3_Mp4_(D)E10: 25-residue arrestin-3 peptide (JNK3) with mp4 linker and 10 glutamic acids, SEQ ID NO: 21, FIG. 49 (MGEKPGTRVFKKSSPNCKLTVYLGK; mp4 linker, 10 D-glutamic acids; SITE 25 C-term Lysine modified with 4 mini PEG linker-d(Glutamic acid)10 moiety)",BV/TV (bone density),[1]; [2],raises bone density
same,"BV (bone volume, bone mineralization)",[1]; [3],raises bone mineralization
same,Max load (bone strength),healed fractured femur; [3],raises bone strength
same,Work to fracture (bone strength),healed fractured femur; [3],raises bone strength
"MGF D10: Mechano-growth factor conjugated with 10 aspartate acids, SEQ ID NO: 11, DDDDDDDDDDYQPPSTNKNTKSQRRKGSTFEEHK (10 aspartates)",BV/TV,[1]; [6],dose dependent manner
"ODP D10: Osteopontin-derived peptide conjugated with 10 aspartate acids via 4 mini PEG, SEQ ID NO: 13 (DDDDDDDDDD[mini PEG][mini PEG][mini PEG][mini PEG]DVDVPDGRGDSLAYG)",BV/TV,"[1]; 4 weeks, 1 nmol/day (1×)",healing was reflected as BV/TV
"OGP-D10: osteogenic growth peptide conjugated with 10 aspartate acids, SEQ ID NO: 2, DDDDDDDDDDALKRQGRTL YGFGG (DDDDDDDDDDALKRQGRTLYGFGG; 10 aspartates)",BV/TV,[1]; [4],dose dependent manner
same,TbSp,[1]; [4],dose dependent manner
same,TbTh,[1]; [4],dose dependent manner
"Osteostatin_mp4_(D)E10: Osteostatin (PTHrP[107-139]) with 10 glutamic acids, SEQ ID NO: 23, FIG. 59",BV/TV (bone density),[1]; [2],raises bone density
same,"Tbth (trabecular thickness, bone quality)",[1]; [3],raises bone quality
same,Max load (bone strength),healed fractured femur; [3],raises bone strength
same,Stiffness,healed fractured femur; [3],raises bone stiffness
same,Work to fracture (bone strength),healed fractured femur; [3],raises bone strength
"P4 D10: P4 (BMP-2 knuckle epitope fragment) conjugated with 10 aspartate acids, SEQ ID NO: 10 (HKIPKASSVPTELSAISTLYLDDDDDDDDDD; 10 aspartates)",BV/TV,[1]; [6],dose dependent manner
"Preptin D10: Preptin conjugated with 10 aspartate acids, SEQ ID NO: 3, FIG. 29 (DVSTSQAVLPDDFPRYDDDDDDDDDD; 10 aspartates)",BV/TV,[1]; [4],dose dependent manner
same,TbTh,[1]; [4],dose dependent manner
same,bone volume (BV),[1]; [4],dose dependent manner
"pBMP9 D 10: peptide from BMP-9 knuckle epitope conjugated with D10, SEQ ID NO: 6/14, FIG. 27 (chain 1 CGGKVGKACCVPTKLSPISVLYK; chain 2 CGGKVGKACCVPTKLSPISVLVK; not fully specified (C-terminus); cysteine pairing not given here; also: the two chains differ at position 22 (Y vs V))",bone volume (BV),"[1]; 4 weeks, 1, 10 and 100 nmol/day, subcutaneous daily",dose dependent manner
same,BV/TV,[1]; [6],dose dependent manner
"targeted E738 conjugate: Src inhibitor E738 conjugated with D10 (10 aspartic acids, SEQ ID NO: 30), FIG. 4 (DDDDDDDDDD; not fully specified (C-terminus); also: conjugated to Src inhibitor E738)",Trabecular Thickness at the fracture callus,[1]; [7],significantly improved
same,bone density (BV/TV) at the fracture callus,[1]; [7],significantly improved
B1,BV/TV,[1]; [6],dose dependent manner
B2,BV/TV,"[1]; 4 weeks, 1 nmol/day (1×)",healing was reflected as BV/TV
same,TbTh,"[1]; 4 weeks, 1 nmol/day (1×)",healing was reflected

# Source: patent US12319721B2 (Purdue Research Foundation, priority 2018, dated 2025)
